Assay [1] relates to osteosarcoma model SXFO 1186. Description: 3D clonogenic assay, Example 2, SXFO 1186. It counts as cell-based. As for the experimental part:
(§1) The present study investigated plinabulin for anticancer activity ex vivo in 68 out of 71 originally planned patient-derived xenograft (PDX) models representing major cancer types. Experiments were performed using a 3D clonogenic assay in a 96-well format with colony count based on image analysis as a read-out. By using this assay, the investigational compound was assessed for the ability to inhibit anchorage independent growth and ex vivo colony formation of tumor cells in semi-solid medium.
(§2) A master stock solution of plinabulin was prepared by dissolving the compound in DMSO at a concentration of 9.9 mM. Working stock solutions were prepared by diluting the master stock solution with DMSO to a concentration of 0.99 mM (330-fold the highest test concentration). Small aliquots of the master and working stock were stored at −20° C. […]
(§3) Plinabulin was investigated in 68 PDX models representing a number of cancer types. […] The percentage of viable cells was determined in a Neubauer-hemocytometer using trypan blue exclusion. […]
(§4) The clonogenic assay was carried out in a 96 well plate format using ultra low attachment plates. […] Cultures were incubated at 37° C. and 7.5% CO2 in a humidified atmosphere 13 days in total and monitored closely for colony growth using an inverted microscope. […]

Assay [2] concerns small cell lung cancer model LXFS 1129. The experiment in a line: 3D clonogenic assay, Example 2, LXFS 1129. It counts as cell-based. The protocol:
as §1, §2, §3, §4

This note sets out measurements from patent publication US20240408082A1, “METHODS FOR TREATING CANCERS AND TUMORS” (BEYONDSPRING PHARMACEUTICALS, INC., priority 2021, published 2024).

By IC50 is commonly meant the concentration at which inhibition is half-maximal. On to `CC(C)(C)c1[nH]cnc1/C=c1\[nH]c(=O)/c(=C/c2ccccc2)[nH]c1=O` [plinabulin, (3Z,6Z)-3-Benzylidene-6-{[5-(2-methyl-2-propanyl)-1H-imidazol-4-yl]methylene}-2,5-piperazinedione], for which the results for the “abs. IC70” value in assay [1] and in assay [2] were 0.027 µM and 0.032 µM, respectively. Besides, in assay [1] (read-out: abs. IC50), the IC50 is 0.019 µM.
